These results are taken from patent US4874844A, “Tripeptide with immunostimulating activity” (Ellem Industria Farmaceutica S.p.A., priority 1986, dated 1989).

Peptide text beside a SMILES is read from it.

The format of data set [1] is in vitro ADME. An excerpt: Resistance to the In Vitro Simulated Gastric Ambient The tripeptide is resistant to the in vitro simulated gastric ambient. In this study the gastric simulated juice USP XXI (HCl+pepsin) has been used at 37 C for 5 hrs.
The subject of another data set is guinea-pig. As to conditions: in vivo, 100 mg/kg.
The test system of data set [2] is mice. The data set can be described thus: Tolerability in mice. Type of data set: in vivo. The following applies: 100 mg/Kg i.p.
For the next data set, the system named is rats. The data set can be described thus: Acute toxicity in rats. It is filed as in vivo. As to conditions: up to a dose of 1000 mg/Kg i.m.
The subject of data set [3] is mice. The data set can be described thus: Acute toxicity in mice. Type of data set: in vivo. As to conditions: up to a dose of 1000 mg/Kg i.m.
Data set [4] is described as follows: Pentobarbital-induced sleeping time. Type of data set: in vivo. The following applies: 100 mg/Kg.
The next data set has as its system rabbits. The data set can be described thus: Tolerability in rabbits. It is filed as in vivo. As to conditions: 100 mg/Kg i.v.

Take `N=C(N)NCCC[C@H](N)C(=O)N[C@@H](CCCCN)C(=O)N[C@@H](CCC(=O)O)C(=O)O` [ELS1, Arg-Lys-Glu] (H-Arg-Lys-Glu-OH): the “resistance to the in vitro simulated gastric ambient” value in data set [1] is listed as “resistant”. Moreover, in the data set with guinea-pig, the sensitization phenomena entry is reported as “doesn't induce any sensitization phenomena”. Also, the “tolerability: hemodynamic modification and behavioral effect” value is “doesn't cause any hemodynamic modification and behavioral effect” in the data set with mice [2]; “doesn't cause any hemodynamic modification and behavioral effect” in the data set with rabbits. Also, the acute toxicity result in the data set with rats and in the data set with mice [3] was “totally devoid of toxic effects” each time. Also, in data set [4], the pentobarbital-induced sleeping time result is on record as “only a slight increase”.
